# Entries after “also recorded” stand apart in the source; their conditions may differ.
# Assays:
# [1] = system: Japanese patients with advanced solid tumours
# Experimental: The study consisted of two stages (Fig. 1).
# Recruitment of patients to each dose level was sequential using the standard 3 + 3 study design. […] At each dose level, treatment was continued until disease progression, DLT or other adverse event (AE) that would hinder the patient’s participation in the study, or until the patient requested discontinuation from the study.
# Safety, pharmacokinetics, efficacy, exploratory pharmacodynamics and genetic outcomes were assessed in this study. The safety outcomes were the incidence, type, severity and time of onset of DLTs, AEs and treatment-related AEs (TRAEs). […] In addition, the maximum tolerated dose (MTD) was determined on the basis of DLTs.
# (§1) Safety endpoints were analysed in the safety population, which consisted of patients who received ≥1 dose of the study drug. Efficacy endpoints were analysed in the full analysis set, which consisted of patients who received ≥1 dose of the study drug and underwent ≥1 post-baseline efficacy assessment. A summary of AEs, TRAEs and DLTs by mapped term, appropriate thesaurus level and severity was provided for each cohort. Summary statistics, including mean, standard deviation, coefficient of variation, median, and minimum and maximum, were calculated for pharmacokinetic and pharmacodynamic parameters.
# Adverse events that could be considered dose-limiting toxicities
# Grade 4 neutropenia persisting for ≥5 days or requiring treatment with G-CSF
# Grade 4 thrombocytopenia or grade 3 thrombocytopenia requiring platelet transfusion
# Grade ≥3 non-hematologic toxicity (excluding transient electrolyte abnormalities) Abnormal
# toxicity will be assessed as DLTs only if they meet the following criteria. Grade ≥3 laboratory
# ALP: A grade ≥3 increase persisting for ≥3 days will be assessed as a DLT.
# Diarrhoea, nausea, vomiting, skin toxicity: A grade ≥3 event persisting for ≥1 week
# [2] = system: IDO1; settings: following oral administration; cited from earlier work
# [3] = system: patients with advanced or recurrent solid tumours; settings: cited from earlier work
# [4] = Plasma pharmacokinetics of navoximod in phase I study; settings: for Dose proportionality of AUC and Cmax: 200-1000 mg
# Experimental: The efficacy outcomes were the response rate, disease control rate, progression-free survival (PFS) and duration of response. Efficacy outcomes were assessed using the Response Evaluation Criteria in Solid Tumours (RECIST) version 1.1. Plasma concentrations of kynurenine and tryptophan and their ratios and the presence of UGT1A1*6 and UGT1A1*28 polymorphisms were the exploratory outcomes of this study.
# as §1
# Schedule for blood sampling for pharmacokinetic assessments
# Visit pharmacokinetics kynurenine/tryptophan
# (time window) pharmacodynamics (time
# Cycle 0 Day 1 5 min before dosing (−30 min) 5 min before dosing (−30 min)
# 30 min after dosing (±5 min) 30 min after dosing (±5 min)
# 1 hr after dosing (±5 min) 1 hr after dosing (±5 min)
# 2 hr after dosing (±5 min) 2 hr after dosing (±5 min)
# 4 hr after dosing (±10 min) 4 hr after dosing (±10 min)
# 6 hr after dosing (±30 min) 6 hr after dosing (±30 min)
# 8 hr after dosing (±30 min) 8 hr after dosing (±30 min)
# 12 hr after dosing (±30 min) 12 hr after dosing (±30 min)
# Cycle 0 Day 2 24 hr after dosing on Cycle 0 Day 1 24 hr after dosing on Cycle 0 Day 1
# Cycle 0 Day 3 48 hr after dosing on Cycle 0 Day 1 –
# (±2 hr), before dosing on Cycle 1
# Cycle 1 Day 8 5 min before dosing (−30 min) –
# Cycle 2 Day 1 5 min before dosing (−30 min) 5 min before dosing (−30 min)
# 12 hr after first dose (±60 min), 12 hr after first dose (±60 min),
# before second dose before second dose
# Cycle 4 Day 1 5 min before dosing (−30 min) –
# Cycle 9 Day 1 5 min before dosing (−30 min) –
# Last observation Any time –
# 12 hr after dosing (±60 min) 12 hr after dosing (±60 min)
# (±2 hr), before dosing on Cycle 1, Day
# [5] = system: advanced solid tumours; assay: Efficacy by RECIST version 1.1 (best overall response, disease control, PFS); settings: Stage 1
# Experimental: The efficacy outcomes were the response rate, disease control rate, progression-free survival (PFS) and duration of response. Efficacy outcomes were assessed using the Response Evaluation Criteria in Solid Tumours (RECIST) version 1.1.
# Efficacy endpoints were analysed in the full analysis set, which consisted of patients who received ≥1 dose of the study drug and underwent ≥1 post-baseline efficacy assessment.
compound,measurement,setting,value
O[C@H](C[C@H]1c2c(F)cccc2-c2cncn21)[C@H]1CC[C@H](O)CC1 [Navoximod],Maximum tolerated dose (MTD),"[1]; Stage 1, monotherapy up to 1000 mg BID",not reached
same,"Any TRAE, All grades","[1]; human, in vivo",6 n
same,"Any TRAE, Grade ≥ 3","[1]; human, in vivo",2 n
same,"Chromaturia, All grades","[1]; human, in vivo",5 n
same,"Chromaturia, Grade ≥ 3","[1]; human, in vivo",0 n
same,Grade 4 or 5 TRAEs,"[1]; human, in vivo",No grade 4 or 5 TRAEs were observed
same,Incidence of chromaturia,"[1]; human, in vivo",55%
same,"Maculopapular rash, All grades","[1]; human, in vivo",2 n
same,"Maculopapular rash, Grade ≥ 3","[1]; human, in vivo",1 n
same,Patients with Grade ≥ 3 TRAEs,"[1]; human, in vivo",20%
same,"Patients with TRAE chromaturia, any grade","[1]; human, in vivo",50%
same,"Patients with TRAE maculopapular rash, any grade","[1]; human, in vivo",20%
same,Patients with TRAEs,"[1]; human, in vivo",60%
same,Symptomatic grade 3 or higher TRAE maculopapular rash,"[1]; human, in vivo",5%
same,Reduction of plasma and tissue kynurenine concentrations,[2],approximately 50%
same,MTD,"[3]; monotherapy 100-800 mg twice daily, 22 patients",not reached
same,CRs or PRs,[3]; monotherapy,no CRs or PRs were observed
same,Half-life,[3]; monotherapy,approximately 12 h
same,Linearity of pharmacokinetics,[3]; monotherapy,linear pharmacokinetics
same,Time to peak plasma concentration,[3]; monotherapy,approximately 60 min
same,Decrease of plasma kynurenine levels,"[3]; navoximod 400 mg, 600 mg or 800 mg, 2–4 h after administration",25–30%
same,Patients with Grade 3 or higher AEs,"[3]; two patients of 22, lower gastrointestinal haemorrhage, diverticulitis",9%
same,Dose-corrected navoximod exposure by UGT1A1 genotype,[4]; patients with UGT1A1 −/*28,higher
same,Dose-corrected navoximod exposure by UGT1A1 genotype,"[4]; patients with UGT1A1 −/−, −/*6 and *6/*6",similar
same,Dose proportionality of AUC and Cmax,[4]; single oral dose,dose-proportional
same,Dose proportionality of AUC and Cmax,"[4]; single oral dose, listed as navoximod",linear pharmacokinetics; also recorded: changed dose-proportionally
same,Time at which mean plasma concentration peaked,"[4]; single oral dose, Stage 1 or Stage 2",15 to 60 min
same,Complete response (CR) and partial response (PR),[5],not observed
same,"PFS, range",[5],9 to 259 days
same,Best overall response progressive disease (PD),"[5]; all doses, n = 10",five
same,Patients with stable disease,"[5]; all doses, n = 10",50%
same,Best overall response progressive disease (PD),[5]; navoximod 400 mg,3 n
same,Best overall response progressive disease (PD),[5]; navoximod 600 mg,2 n

# Reference: PMC7066107 (Investigational New Drugs, 2019)
